Assay results: patent publication US11072567B2, “Urea-based blend composition and method for the manufacture thereof” (YARA INTERNATIONAL ASA, priority 2015, dated 2021)
Blank lines part the entries; values can stand above or below the compound they belong to.

How the values were obtained:
[1] = Stability of nBTPT on urea blended with DAP, bagged storage at 20° C., HPLC analysis of nBTPT content; type: physicochemical; conditions: 2500 ppm added; 900 ppm nBTPT as Agrotain Ultra on urea blended with DAP 1:1; 14 days bagged storage at 20° C.
Method: (§1) For lab scale experiments, nBTPT was applied onto urea by adding 1.2 kg of urea-based compound to a lab scale drum. In a next step, the nBTPT material was slowly added. A residence time of 10 minutes was applied and the rotating speed of the drum was consequently the same in each experiment. In case a moisture repellent coating was added, a nebulizer was used and depending on the order of addition, the moisture repellent coating was added before or after addition of the nBTPT material. Before use, the moisture repellent coating was preheated to 80° C. Larger scale experiments with amounts up to 40 kg of fertilizer material were performed in a concrete mixer.
(§2) In a next step, one or more reactive alkaline or alkaline-forming inorganic or organic compounds that is able to interact with the one or more components selected from the group of nitrates, phosphates, sulphates and chlorides was added;
(§3) In a next step, a particulate material, comprising one or more components selected from the group of nitrates, phosphates, sulphates and chlorides was added;
(§4) All the components were mixed thoroughly.
Optionally, a coating to one or more of the particulate components that is able to increase at least the anti-caking and/or water repellent properties of said urea-based blend composition was added. Importantly, all the steps can be interchanged or the steps can be performed simultaneously.
(§5) The samples were stored under several conditions, dependent on the type of samples: • 20° C. closed plastic container with head space (Climate chamber, 80% relative humidity) • Bagged at room temperature (20-25° C.) or in nissenhut (an unconditioned bulk hall) • Open to air in nissenhut • Cylinder test in nissenhut • Open pile in nissenhut
(§6) HPLC analysis of nBTPT is done as described in the procedure CEN 15688-2007.
(§7) In practice, the urea-based compound treated with nBTPT was picked and separated manually from the particulate material, comprising one or more components selected from the group of nitrates, phosphates, sulphates and chlorides, and then subsequently dissolved in water for HPLC analysis.
Coating: Moisture repellent (MR) coating was made according to EP 0768993 A1 (Norsk Hydro ASA) by mixing about 28 weight % of wax, about 68 weight % of oil and about 4 weight % of a resin, applied in an amount of about 0.1-0.5% weight % to the fertilizer. It will be referred herein as NH coating.

[2] = type: physicochemical
From the text: With regard to the activity of the reactive alkaline or alkaline-forming inorganic or organic compounds, without being bound by theory, it is hypothesised that the reactive alkaline or alkaline-forming inorganic or organic compound neutralises the released phosphoric acid which is formed during decomposition of the urease inhibitor of the type phosphoric triamide in view of the fact that the decomposition of the urease inhibitor of the type phosphoric triamide is acid-catalysed. As such, the decomposition of the urease inhibitor of the type phosphoric triamide is slowed down. Furthermore, the stabilizer has the ability to immobilize the nitrates, phosphates, sulphates and chlorides and/or to convert the nitrates, phosphates, sulphates and chlorides into a form which is less reactive with the urease inhibitor of the type phosphoric triamide. For example, calcium oxide may react with ammonium sulphate in the presence of water, which is always present in small amounts in urea, to form calcium sulphate, which is nearly insoluble in an aqueous environment, such as a soil.

[3] = Stability of nBTPT in/on urea blends, storage open to air in jars in nissenhut, HPLC analysis of nBTPT content; type: physicochemical; conditions: for effect of addition on the stability of nBTPT: 2650 ppm added, 14 days open to air in jars at nissenhut; for stability of nBTPT (degradation): 35 days open to air in jars in nissenhut
Method: nBTPT was mixed in urea in the following way: nBTPT was added to urea melt and subsequently this mixture was granulated in a fluidized bed granulator.
as §1, §2, §3, §4, §5
(§8) Typically, a day/night cycle is generated in the nissenhut, with temperature fluctuations between 0 to 42° C. and fluctuations of relative humidity between 20 and 90%, which can be compared with real life storage in silos.
as §6, §7

[4] = Stability of nBTPT in/on urea:AS blend, bagged versus open to air storage in nissenhut; type: physicochemical; conditions: 500 ppm nBTPT in/on urea blended with granular AS 1:1; 35 days in nissenhut
Method: FIG. 8. Stability of different nBTPT formulations (500 ppm) in and on urea in a blend with granular AS: bagged versus open to air storage-% recovery of nBTPT after 35 days of storage in nissenhut (day/night cycle 16-42° C./27-77% relative humidity). • A=[500 ppm nBTPT powder in urea]+AS 1:1 • B=[500 ppm nBTPT powder on urea]+AS 1:1 • C=[500 ppm nBTPT as Agrotain® Ultra in urea]+AS 1:1 • D=[500 ppm nBTPT as Agrotain® Ultra on urea]+AS 1:1
as §5, §8, §6, §7

Compound: O=C([O-])[O-].[Ca+2] [CaCO3, calcium carbonate]
effect of addition on the stability of nBTPT [1]: beneficial effect

stabilizing effect on nBTPT [2]: no stabilizing effect
Compound: talc

Compound: [O]=[Ca] [CaO, calcium oxide]
effect of addition on the stability of nBTPT ([3]; 500 ppm nBTPT powder in or on urea blended with DAP and KCl triple 19): beneficial effect | effect of addition on the stability of nBTPT ([3]; 500 ppm nBTPT powder in or on urea blended with granular AS 1:1): beneficial effect | effect of addition on the stability of nBTPT [1]: beneficial effect

Compound: CCCCNP(N)(N)=S [nBTPT, N-(n-butyl) thiophosphoric triamide]
stability of nBTPT (degradation) ([3]; liquid nBTPT formulations in and on urea (500 ppm) blended with granular AS 1:1, 16-42° C./27-77% relative humidity): degrades very fast | stability of nBTPT (degradation) ([3]; nBTPT formulations in and on urea (500 ppm) blended with DAP and KCl, triple 19 ratio): degrades very dramatically | stability of nBTPT (degradation) ([3]; solid nBTPT in and on urea (500 ppm) blended with DAP 1:1): degrades very fast | stability of nBTPT (degradation) ([3]; solid nBTPT in and on urea (500 ppm) blended with KCl 1:1): degrades very fast | effect of bagged storage versus open to air storage on stability of nBTPT [4]: beneficial effect of bagged storage

Compound: [O]=[Zn] [ZnO, zinc oxide]
effect of addition on the stability of nBTPT [1]: beneficial effect

effect of addition on the stability of nBTPT [1]: beneficial effect
Compound: CCN(CC)CC [triethylamine]

Compound: [O]=[Mg] [MgO, magnesium oxide]
effect of addition on the stability of nBTPT [1]: beneficial effect

effect of addition on the stability of nBTPT [1]: beneficial effect
Compound: OCCNCCO [diethanolamine]
